What was measured:
[1] = tested on: K/BxN serum induced arthritis in C57/BL6 mice; assay: K/BxN serum transfer arthritis, incidence of severe arthritis; assay type: in vivo; conditions: K/BxN serum i.p. days 0 and 2; 8 days study period; N=6; drug alone
Experimental: Six week-old C57/BL6 mice were purchased from Charles River and left for one week for acclimatization before starting the experiment.
Arthritis was induced with two i.p. injections of 100 μl K/BxN serum on days 0 and 2 (for details see J Immunol 2015; 194:3381-3388).
Methotrexate and Veh2 (12.5% carbonate) were administered on days 3, 5 and 7 by i.p. injection (injected volume: 200 μl).
Preparation of methotrexate formulation: A small volume of 0.1M carbonate-bicarbonate buffer pH=9.6 was used to dissolve methotrexate (Sigma Cat no: A6770). Then, PBS was used to reach the desired concentration. […] Diluted compound was divided in single-use aliquots and stored at −20° C. until use.
The development of arthritis was monitored daily from day 0 to day 8.
Mice were sacrificed on day 8 after recording the daily measurements.
Visible signs of arthritis were assessed using the scoring method as described in Am J Pathol, 2014; 184(8):2333-41 consisting on assigning a score of 0-3 per paw, reaching a maximum of 12 per mouse: • Score 0: no signs of inflammation. • Score 1: subtle inflammation, localized. • Score 2: easily identified but localized. • Score 3: evident inflammation, not localized. […]
The incidence of severe arthritis was calculated as the % of mice in each group that reached a total score of 10.

[2] = Phase I Part I: single ascending oral dose pharmacokinetics (oral suspension); assay type: in vivo, human (healthy volunteers)
Experimental: FIG. 2: Plasma concentration following single oral dosing of test compound in healthy volunteers. […] Dose levels of test compound: 100, 200, 400, 600 or 800 mg. Consecutive plasma samples were collected and concentration in plasma determined by LCMS-MS. N=6 per dose level. Mean per group.

[3] = Phase I Part II: comparative bioavailability tablet vs. oral suspension; assay type: in vivo, human (healthy volunteers); conditions: 200 mg as two 100 mg tablets vs. 200 mg oral suspension, three-way cross-over
[4] = Phase I Part III: 14-day repeated dose pharmacokinetics, tablets; assay type: in vivo, human (healthy volunteers); conditions: tablets 100 mg daily (Group 1)
Text: (§1) Fourteen days repeated dosing was initiated using a tablet formulation (Part III) and was completed (Part IV) using the suspension for oral administration.
A total of 111 subjects were randomized; 104 young healthy male volunteers and eight (8) post-menopausal women.

[5] = Phase I Part IV: 14-day repeated dose pharmacokinetics, oral suspension; assay type: in vivo, human (healthy volunteers)
Experimental: FIG. 3: Plasma concentration following repeated oral dosing of test compound in healthy volunteers. […] Dose levels of test compound 1: 50, 100, 200 mg. Consecutive plasma samples were collected following the last day of dosing (day 14) and concentration in plasma determined by LCMS-MS. N=9 per dose level. Mean+/−SD per group.

MC1R [6] = conditions: cited from earlier work
MC3R = conditions: induces ERK1/2-phosphorylation and Ca2+ mobilization; cited from earlier work
MC1R [7] = target: MC1R (Homo sapiens, UniProt Q01726); conditions: WO 2007/141343; cited from earlier work
[8] = Phase I Part I: single ascending oral dose safety
Text: as §1
The two first male groups were composed of 3 subjects receiving active and one subject placebo; the other groups consisted of 6 subjects receiving active IMP and two subjects receiving placebo. Forty-eight (48) healthy male volunteers aged 19 to 39 years and eight (8) healthy postmenopausal female volunteers, aged 47 to 60 years were included.

[9] = Phase I Part IV: 14-day repeated dose safety, oral suspension
Experimental: A Part IV was added to the study that was identical to Study Part III but conducted with the oral suspension in fasting conditions.
The dose levels tested were 50 mg, 100 mg or 200 mg with matching placebo (See FIG. 3).

[10] = female post-menopausal subjects, single 400 mg oral suspension
[11] = 50, 100 or 200 mg once daily for 14 days

Sequence of MC1R (Homo sapiens, UniProt Q01726) (Q01726 whole entry, species assumed): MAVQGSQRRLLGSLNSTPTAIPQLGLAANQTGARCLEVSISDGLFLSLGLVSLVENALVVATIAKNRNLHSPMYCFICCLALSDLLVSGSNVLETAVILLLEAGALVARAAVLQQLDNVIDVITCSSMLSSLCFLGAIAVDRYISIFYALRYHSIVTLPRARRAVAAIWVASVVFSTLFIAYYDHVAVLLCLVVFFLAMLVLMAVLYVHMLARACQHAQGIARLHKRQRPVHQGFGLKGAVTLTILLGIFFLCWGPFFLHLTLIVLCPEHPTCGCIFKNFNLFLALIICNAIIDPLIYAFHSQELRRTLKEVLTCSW

Compound: CC(=O)O.N=C(N)N/N=C/C=C/c1cccn1-c1ccccc1[N+](=O)[O-] [AP1189]
- incidence of severe arthritis (% of mice in each group that reached a total score of 10) [1]: 50%
- Cmax and AUCs compared to male subjects [2, 10]: slightly increased
- apparent clearance [2, 10]: 17.26 L/h
- apparent volume of distribution compared to male subjects [2, 10]: similar
- inter-individual variability for Cmax and AUCs ([2]; male subjects, single oral suspension, dose range 50-800 mg, fasting): < 36%
- exposure at the maximum administrated dose (MAD) above expected exposure level for therapeutic efficacy ([2]; single oral dose, MAD): more than 10 ×
- exposure of tablet compared to oral suspension [3]: lower exposure with higher variability
- bioavailability within and between subjects [4]: high and unpredicted degree of bioavailability both within and between subjects
- exposure judged on Cmax, span [4]: from below the limit of quantification (BLQ) up to levels expected to be more than three times the exposure expected to induce therapeutic effects
- day steady state achieved ([5]; 50 mg once daily oral suspension): 7 days
- peak increase compared to cohort 1 (50 mg) ([5]; 100 mg once daily oral suspension): approximately 2 fold
- Cmax ([5]; male, human, plasma, oral, 200 mg once daily, steady conditions, read-out: C Max (mean +/− SD, N = 9)): 0.893 ± 0.198 µg/mL
- activity at receptor MC1R (MC1R [6]; induces ERK1/2-phosphorylation and Ca2+ mobilization): biased dual agonist
- canonical cAMP generation (MC1R [6]; receptors MC1R and MC3R, hence no MC1R-induced melanogenesis): does not provoke canonical cAMP generation
- activity at receptor MC3R (MC3R): biased dual agonist
- binding to MC1R (MC1R [7]): shown to bind the MC1R
- QTcF and other cardiac parameters ([8]; continuous 24-hours 1000 HZ Holter ECG recording, single dose): No AP1189 associated increases in QTcF
- increase in aminotransferases, above the normal upper value of ALT ([8]; male subjects, single dose 400, 600 or 800 mg): up to 1.6
- subjects with isolated increases in aminotransferases ([8]; male subjects, single dose (1 at 400 mg, 2 at 600 mg, 1 at 800 mg)): 4 subjects
- severe AEs / serious AEs ([8]; single oral dose 15-800 mg): No severe AEs nor serious AEs
- treatment-related changes in vital signs ([8]; single oral dose 15-800 mg): No treatment-related changes in vital signs
- maximum tolerated dose (MTD) ([8]; single oral dose up to 800 mg): not reached
- QTcF in repeated standard 12 lead safety ECG [9, 11]: No individual QTcF clinically significant values
- severe AEs / serious AEs [9, 11]: No severe AEs nor serious AEs
- subjects treated with active with isolated increases in aminotransferases ([9]; Cohort 3, 200 mg once daily for 14 days): 3 subjects
- TEAEs considered possibly related to the study treatment ([9]; once daily for 14 days, 2 at 50 mg, 2 at 200 mg, gastrointestinal disorders): 4 events
- MTD ([9]; up to 200 mg once daily for 14 days): not reached

Compound: CN(Cc1cnc2nc(N)nc(N)c2n1)c1ccc(C(=O)N[C@@H](CCC(=O)O)C(=O)O)cc1 [methotrexate, reference compound]
- incidence of severe arthritis (% of mice in each group that reached a total score of 10) [1]: 50%

From US12303489B2, “Combination treatment of arthritic disease” (SYNACT PHARMA APS, priority 2019, dated 2025)
